Tested on: Wnt activity (wnt-responsive SP5 promoter luciferase reporter in SW480 cells)
Assay: Wnt activity reporter assay (SP5 promoter-firefly luciferase in SW480 cells)
Assay type: cell-based
Conditions: Homo sapiens; SW480 colon cancer cells with SP5 promoter luciferase reporter; 24 h after compound addition; half-log dilutions, three micromolar top concentration; normalized to DMSO; read-out: Wnt inhibition
From the text: The above synthesized compounds were screened using the assay procedure for Wnt activity described below.
Reporter cell lines were generated by stably transducing cells of cancer cell lines (e.g., colon cancer) with a lentiviral construct that include a wnt-responsive promoter driving expression of the firefly luciferase gene.
Lentiviral constructs were made in which the SP5 promoter, a promoter having eight TCF/LEF binding sites derived from the SP5 promoter, was linked upstream of the firefly luciferase gene. The lentiviral constructs included a hygromycin resistance gene as a selectable marker. The SP5 promoter construct was used to transduce SW480 cells, a colon cancer cell line having a mutated APC gene that generates a truncated APC protein, leading to de-regulated accumulation of β-catenin.
Cultured SW480 cells bearing a reporter construct were distributed at approximately 10,000 cells per well into 384 well multiwell plates. Compounds were then added to the wells in half-log dilutions using a three micromolar top concentration. A series of control wells for each cell type received only buffer and compound solvent. Twenty-four hours after the addition of compound, reporter activity for luciferases was assayed, for example, by addition of the BrightGlo luminescence reagent (Promega) and the Victor3 plate reader (Perkin Elmer). Readings were normalized to DMSO only treated cells, and normalized activities were then used for the IC50 calculations.

Row | Compound | IC50 [µM]
1 | O=C(Nc1cncc(-c2ccc3[nH]nc(-c4nc5c(-c6cccnc6)cccc5[nH]4)c3c2)c1)C1CCC1 [Compound 92, N-(5-(3-(4-(Pyridin-3-yl)-1H-benzo[d]imidazol-2-yl)-1H-indazol-5-yl)pyridin-3-yl)cyclobutanecarboxamide] | 0.008
2 | O=C(Nc1cncc(-c2ccc3[nH]nc(-c4nc5c(-c6cccnc6)cccc5[nH]4)c3c2)c1)C1CCCCC1 [Compound 94, N-(5-(3-(4-(Pyridin-3-yl)-1H-benzo[d]imidazol-2-yl)-1H-indazol-5-yl)pyridin-3-yl)cyclohexanecarboxamide] | 0.121
3 | c1ccc(CNCc2cncc(-c3ccc4[nH]nc(-c5nc6c(-c7cccnc7)cccc6[nH]5)c4c3)c2)cc1 [Compound 95, N-Benzyl-1-(5-(3-(4-(pyridin-3-yl)-1H-benzo[d]imidazol-2-yl)-1H-indazol-5-yl)pyridin-3-yl)methanamine] | 0.163
4 | CC(C)(C)C(=O)Nc1cncc(-c2ccc3[nH]nc(-c4nc5c(-c6ccncc6)cccc5[nH]4)c3c2)c1 [Compound 104, N-(5-(3-(4-(Pyridin-4-yl)-1H-benzo[d]imidazol-2-yl)-1H-indazol-5-yl)pyridin-3-yl)pivalamide] | 0.065
5 | O=C(Cc1ccccc1)Nc1cncc(-c2ccc3[nH]nc(-c4nc5c(-c6ccncc6)cccc5[nH]4)c3c2)c1 [Compound 106, 2-Phenyl-N-(5-(3-(4-(pyridin-4-yl)-1H-benzo[d]imidazol-2-yl)-1H-indazol-5-yl)pyridin-3-yl)acetamide] | 1.93
6 | CC(C)Nc1cncc(-c2ccc3[nH]nc(-c4nc5c(-c6ccncc6)cccc5[nH]4)c3c2)c1 [Compound 108, N-Isopropyl-5-(3-(4-(pyridin-4-yl)-1H-benzo[d]imidazol-2-yl)-1H-indazol-5-yl)pyridin-3-amine] | 0.016
7 | c1cc(-c2ccncc2)c2nc(-c3n[nH]c4ccc(-c5cncc(CN6CCCC6)c5)cc34)[nH]c2c1 [Compound 110, 3-(4-(Pyridin-4-yl)-1H-benzo[d]imidazol-2-yl)-5-(5-(pyrrolidin-1-ylmethyl)pyridin-3-yl)-1H-indazole] | 0.205
8 | CCCCC(=O)Nc1cncc(-c2ccc3[nH]nc(-c4nc5c(-c6ccncc6)cccc5[nH]4)c3c2)c1 [Compound 114, N-(5-(3-(4-(Pyridin-4-yl)-1H-benzo[d]imidazol-2-yl)-1H-indazol-5-yl)pyridin-3-yl)pentanamide] | 0.067
9 | O=C(Nc1cncc(-c2ccc3[nH]nc(-c4nc5c(-c6ccncc6)cccc5[nH]4)c3c2)c1)C1CCC1 [Compound 116, N-(5-(3-(4-(Pyridin-4-yl)-1H-benzo[d]imidazol-2-yl)-1H-indazol-5-yl)pyridin-3-yl)cyclobutanecarboxamide] | 0.023
10 | O=C(Nc1cncc(-c2ccc3[nH]nc(-c4nc5c(-c6ccncc6)cccc5[nH]4)c3c2)c1)C1CCCC1 [Compound 117, N-(5-(3-(4-(Pyridin-4-yl)-1H-benzo[d]imidazol-2-yl)-1H-indazol-5-yl)pyridin-3-yl)cyclopentanecarboxamide] | 0.054
11 | O=C(Nc1cncc(-c2ccc3[nH]nc(-c4nc5c(-c6ccncc6)cccc5[nH]4)c3c2)c1)C1CCCCC1 [Compound 118, N-(5-(3-(4-(Pyridin-4-yl)-1H-benzo[d]imidazol-2-yl)-1H-indazol-5-yl)pyridin-3-yl)cyclohexanecarboxamide] | 1.46
12 | CC(C)CC(=O)Nc1cncc(-c2ccc3[nH]nc(-c4nc5c(-c6ccccn6)cccc5[nH]4)c3c2)c1 [Compound 122, 3-Methyl-N-(5-(3-(4-(pyridin-2-yl)-1H-benzo[d]imidazol-2-yl)-1H-indazol-5-yl)pyridin-3-yl)butanamide] | 0.011
13 | Cc1ccncc1-c1ccc2[nH]nc(-c3nc4c(-c5ccccn5)cccc4[nH]3)c2c1 [Compound 125, 5-(4-Methylpyridin-3-yl)-3-(4-(pyridin-2-yl)-1H-benzo[d]imidazol-2-yl)-1H-indazole] | 0.054
14 | CN(C)c1cncc(-c2ccc3[nH]nc(-c4nc5c(-c6ccccn6)cccc5[nH]4)c3c2)c1 [Compound 127, N,N-Dimethyl-5-(3-(4-(pyridin-2-yl)-1H-benzo[d]imidazol-2-yl)-1H-indazol-5-yl)pyridin-3-amine] | 0.032
15 | CC(C)C(=O)Nc1cncc(-c2ccc3[nH]nc(-c4nc5c(-c6ccccn6)cccc5[nH]4)c3c2)c1 [Compound 129, N-(5-(3-(4-(Pyridin-2-yl)-1H-benzo[d]imidazol-2-yl)-1H-indazol-5-yl)pyridin-3-yl)isobutyramide] | 0.021
16 | CN(C)Cc1cncc(-c2ccc3[nH]nc(-c4nc5c(-c6ccccn6)cccc5[nH]4)c3c2)c1 [Compound 133, N,N-Dimethyl-1-(5-(3-(4-(pyridin-2-yl)-1H-benzo[d]imidazol-2-yl)-1H-indazol-5-yl)pyridin-3-yl)methanamine] | 0.127

Row | Compound | IC50 [µM]
17 | c1ccc(-c2cccc3[nH]c(-c4n[nH]c5ccc(-c6cncc(CN7CCCC7)c6)cc45)nc23)nc1 [Compound 134, 3-(4-(Pyridin-2-yl)-1H-benzo[d]imidazol-2-yl)-5-(5-(pyrrolidin-1-ylmethyl)pyridin-3-yl)-1H-indazole] | 0.219
18 | CCCCC(=O)Nc1cncc(-c2ccc3[nH]nc(-c4nc5c(-c6ccccn6)cccc5[nH]4)c3c2)c1 [Compound 138, N-(5-(3-(4-(Pyridin-2-yl)-1H-benzo[d]imidazol-2-yl)-1H-indazol-5-yl)pyridin-3-yl)pentanamide] | 0.018
19 | O=C(Nc1cncc(-c2ccc3[nH]nc(-c4nc5c(-c6ccccn6)cccc5[nH]4)c3c2)c1)C1CCC1 [Compound 140, N-(5-(3-(4-(Pyridin-2-yl)-1H-benzo[d]imidazol-2-yl)-1H-indazol-5-yl)pyridin-3-yl)cyclobutanecarboxamide] | 0.008
20 | O=C(Nc1cncc(-c2ccc3[nH]nc(-c4nc5c(-c6ccccn6)cccc5[nH]4)c3c2)c1)C1CCCCC1 [Compound 142, N-(5-(3-(4-(Pyridin-2-yl)-1H-benzo[d]imidazol-2-yl)-1H-indazol-5-yl)pyridin-3-yl)cyclohexanecarboxamide] | 0.155
21 | c1ccc(-c2cccc3[nH]c(-c4n[nH]c5ccc(-c6cncc(CNCC7CCCC7)c6)cc45)nc23)nc1 [Compound 144, 1-Cyclopentyl-N-((5-(3-(4-(pyridin-2-yl)-1H-benzo[d]imidazol-2-yl)-1H-indazol-5-yl)pyridin-3-yl)methyl)methanamine] | 1.18
22 | CC(C)CC(=O)Nc1cncc(-c2ccc3[nH]nc(-c4nc5c(N6CCCCC6)cccc5[nH]4)c3c2)c1 [Compound 146, 3-Methyl-N-(5-(3-(4-(piperidin-1-yl)-1H-benzo[d]imidazol-2-yl)-1H-indazol-5-yl)pyridin-3-yl)butanamide] | 0.058
23 | CN(C)c1cncc(-c2ccc3[nH]nc(-c4nc5c(N6CCCCC6)cccc5[nH]4)c3c2)c1 [Compound 151, N,N-Dimethyl-5-(3-(4-(piperidin-1-yl)-1H-benzo[d]imidazol-2-yl)-1H-indazol-5-yl)pyridin-3-amine] | 0.041
24 | O=C(Nc1cncc(-c2ccc3[nH]nc(-c4nc5c(N6CCCCC6)cccc5[nH]4)c3c2)c1)c1ccccc1 [Compound 155, N-(5-(3-(4-(Piperidin-1-yl)-1H-benzo[d]imidazol-2-yl)-1H-indazol-5-yl)pyridin-3-yl)benzamide] | 0.289
25 | CC(C)Nc1cncc(-c2ccc3[nH]nc(-c4nc5c(N6CCCCC6)cccc5[nH]4)c3c2)c1 [Compound 156, N-Isopropyl-5-(3-(4-(piperidin-1-yl)-1H-benzo[d]imidazol-2-yl)-1H-indazol-5-yl)pyridin-3-amine] | 0.066
26 | c1cc(N2CCCCC2)c2nc(-c3n[nH]c4ccc(-c5cncc(CN6CCCC6)c5)cc34)[nH]c2c1 [Compound 158, 3-(4-(Piperidin-1-yl)-1H-benzo[d]imidazol-2-yl)-5-(5-(pyrrolidin-1-ylmethyl)pyridin-3-yl)-1H-indazole] | 0.116
27 | CCCCC(=O)Nc1cncc(-c2ccc3[nH]nc(-c4nc5c(N6CCCCC6)cccc5[nH]4)c3c2)c1 [Compound 162, N-(5-(3-(4-(Piperidin-1-yl)-1H-benzo[d]imidazol-2-yl)-1H-indazol-5-yl)pyridin-3-yl)pentanamide] | 0.14
28 | O=C(Nc1cncc(-c2ccc3[nH]nc(-c4nc5c(N6CCCCC6)cccc5[nH]4)c3c2)c1)C1CCCCC1 [Compound 166, N-(5-(3-(4-(Piperidin-1-yl)-1H-benzo[d]imidazol-2-yl)-1H-indazol-5-yl)pyridin-3-yl)cyclohexanecarboxamide] | 0.445
29 | Cc1cn(-c2cccc3[nH]c(-c4n[nH]c5ccc(-c6cnccc6C)cc45)nc23)cn1 [Compound 173] | 0.046
30 | Cc1cn(-c2cccc3[nH]c(-c4n[nH]c5ccc(-c6cncc(NC(=O)c7ccccc7)c6)cc45)nc23)cn1 [Compound 179, N-(5-(3-(4-(4-Methyl-1H-imidazol-1-yl)-1H-benzo[d]imidazol-2-yl)-1H-indazol-5-yl)pyridin-3-yl)benzamide] | 0.01
31 | Cc1cn(-c2cccc3[nH]c(-c4n[nH]c5ccc(-c6cncc(NC(=O)CC(C)(C)C)c6)cc45)nc23)cn1 [Compound 184, 3,3-Dimethyl-N-(5-(3-(4-(4-methyl-1H-imidazol-1-yl)-1H-benzo[d]imidazol-2-yl)-1H-indazol-5-yl)pyridin-3-yl)butanamide] | 0.115

From patent US10654832B2, “3-(benzoimidazol-2-YL)-indazole inhibitors of the Wnt signaling pathway and therapeutic uses thereof” (Samumed, LLC, priority 2013, dated 2020)
